Measured values taken from patent US5456923A, “Method of manufacturing solid dispersion” (priority 1991, dated 1995).
≈ marks a conversion by molar mass, not a printed value. Where a name gives a salt, the structure may show the parent alone.

Test: physchem
Conditions: jp test solution 2
Protocol: Test method: Saturation dissolution method
Test conditions: Constanttemperature bath (25° C.)
Ultracentrifugation: 40000 rpm × 1 hr; the supernatant analyzed by

SMILES	solubility at 24 h
COC(=O)C1=C(C)NC(C)=C(P2(=O)OCCCO2)C1c1ccccc1[N+](=O)[O-] (centres unmarked) [Compound A, methyl 2,6-dimethyl-4-(2-nitrophenyl)-5-(2-oxo-1,3,2-dioxaphosphorinan-2-yl)-1,4-dihydropyridine-3-carboxylate]	36.5 µg/mL (≈ 89.4 µM)
COC(=O)C1=C(C)NC(C)=C(C(=O)OCCN(C)Cc2ccccc2)C1c1cccc([N+](=O)[O-])c1 (centres unmarked) [nicardipine hydrochloride]	8.5 µg/mL
